The results in this text go back to patent US11970483B2, “Heterocyclic compound” (Takeda Pharmaceutical Company Limited, priority 2018, dated 2024).

The target in data set [1] is T1, human M1 receptor (hCHRM1) (Homo sapiens, UniProt P11229).
T1 construct: expressed in transfected cells
T1 sequence (P11229 1-460): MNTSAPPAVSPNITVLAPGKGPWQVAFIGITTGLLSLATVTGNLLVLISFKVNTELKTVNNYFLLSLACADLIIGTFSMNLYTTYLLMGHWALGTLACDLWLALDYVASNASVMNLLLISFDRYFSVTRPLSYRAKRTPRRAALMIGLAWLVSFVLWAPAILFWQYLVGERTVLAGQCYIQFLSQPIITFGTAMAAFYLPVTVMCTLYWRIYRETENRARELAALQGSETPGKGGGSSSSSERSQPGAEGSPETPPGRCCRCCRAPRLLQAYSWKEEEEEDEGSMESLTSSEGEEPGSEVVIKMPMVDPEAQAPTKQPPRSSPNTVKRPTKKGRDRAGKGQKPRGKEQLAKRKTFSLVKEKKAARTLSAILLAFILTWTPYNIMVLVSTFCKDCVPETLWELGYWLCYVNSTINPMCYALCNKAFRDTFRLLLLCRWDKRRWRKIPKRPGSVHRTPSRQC
Briefly: Measurement of M1 receptor positive allosteric modulator (M1PAM) activity (IP1 HTRF, in presence of EC20 acetylcholine). In kind it is cell-based. To be noted: CHO-K1 cells stably expressing hCHRM1; acetylcholine at EC20 concentration; IP1 readout. The procedure:
Measurement of M1 Receptor Positive Allosteric Modulator (M1PAM) Activity
The activity of a test compound in the presence of acetylcholine at an EC20 concentration affording about 20% action of the maximum activity was measured as PAM activity.
The method therefor is as follows. To a 384-well white plate (Greiner) was added 4 μL of the test compound diluted with IP1 Stimulation buffer (CisBio) containing 0.1% fatty acid-free BSA containing 80 nM acetylcholine. Freeze stock of CHO-K1 cells stably expressing human M1 receptor (hCHRM1) was prepared with IP1 Stimulation buffer (CisBio) containing 0.1% fatty acid-free BSA, 4 μL thereof was added (10,000 cells/well) and the mixture was cultured in a 5% CO2 incubator at 37° C. for 1 hr. 4 μL of a solution (CisBio) containing IP1-d2 and Anti-IP1-cryptate Tb conjugate was added, the mixture was incubated at room temperature for 1 hr, and the time-resolved fluorescence signal was measured on an Envision plate reader (PerkinElmer). The activity (%) of the test compound was calculated by defining the value when acetylcholine was added at the final concentration of 20 μM as 100% and the value when DMSO was added instead of the test compound under acetylcholine-free conditions as 0%, and the EC50 value was calculated as a value of 50% of the concentration dependence curve of the test compound.
(In TR-FRET formats the signal depends on donor and acceptor labels being close together.)

The nature of data set [2]: Rat PK test (cassette dosing). In kind it is in vivo. To be noted: male SD rats, plasma; for clearance / MRT: intravenous 0.1 mg/kg, 10 compounds cassette; for clearance: read-out: CL total (total clearance) (converted); for MRT: read-out: MRT iv (mean residence time, intravenous administration); for Tmax: oral administration 1 mg/kg, 5 compounds cassette, read-out: Tmax (time to reach maximum plasma concentration). The procedure: As the rat, 8-week-old male SD rats (Japan SLC, Inc.) were used. They were fed on a solid commercially available diet (CE-2, CLEA Japan, Inc.) and allowed to freely ingest tap water as the drinking water. An intravenous administration solution for the rats was prepared by weighing a test compound, dissolving same in dimethylacetamide (DMA) (Wako Pure Chemical Industries, Ltd.), adding the same volume of 1,3-butanediol (Wako Pure Chemical Industries, Ltd.) and mixing by stirring to give a DMA:1,3-butanediol (1:1, v/v) solution. An oral administration solution was prepared by weighing a test compound, pulverizing same in an agate mortar, and gradually adding 0.5 w/v % aqueous methylcellulose solution to give a suspension. For intravenous administration, the solution was administered into femoral vein of the rats at 0.1 mg/0.5 mL/kg (salt converted to free form). For oral administration, the suspension was administered to the rats at 1 mg/5 mL/kg (salt converted to free form). The cassette dosing method was used for the both administration routes, and the test compound was administered in the following manner.
Compound of Example 1 (intravenous: 10 compounds cassette administration, oral: 5 compounds cassette administration)
Compound of Example 27 (intravenous: 10 compounds cassette administration, oral: 5 compounds cassette administration)
Compound of Example 28 (intravenous: 10 compounds cassette administration, oral: 5 compounds cassette administration)
Compound of Example 29 (intravenous: 10 compounds cassette administration, oral: 5 compounds cassette administration)
In the case of intravenous administration, blood samples were collected from the tail vein at 5, 10, 15, 30 min, 1, 2, 4, 8 hr after administration, an anticoagulation treatment with heparin sodium (Shimizu Pharmaceutical Co., Ltd.) was performed, and plasma was collected after centrifugation and subjected to the measurement of drug concentration. In the case of oral administration, blood samples were collected from the tail vein at 15, 30 min, 1, 2, 4, 8 hr after administration, an anticoagulation treatment with heparin sodium was performed, and plasma was collected after centrifugation and subjected to the measurement of drug concentration.
All drug concentrations were measured by LC-MS/MS analysis. For a pharmacokinetics test, the plasma (50 μL) was placed in a tube, acetonitrile (150 μL) containing internal standard solution was added and they were mixed on a vortex mixer. Thereafter, the mixture was centrifuged (5000 rpm, 5 min, 4° C.). The supernatant (60 μL) after centrifugation was added to 10 mmol/L ammonium formate (160 μL) added earlier and mixed therewith. This sample was injected to LC/MS/MS. The HPLC system used was Shimadzu LC-20A (Shimadzu Corporation), the column used was Unison UK-C18 HT (3.0 μm, 2.0×20 mm, Imtakt) at 50° C., and 10 mmol/L ammonium formate, 0.2% formic acid as mobile phase A and acetonitrile, 0.2% formic acid as mobile phase B were fed each at a flow rate of 1.2 mL/min under gradient conditions of (B concentration: 0 min→0.1 min, 5%, 0.1→0.75 min, 5-99%, 0.75→1.15 min, 99%, 1.15→1.16 min, 5%, 1.16→1.5 min, 5%). MS/MS used was AB Sciex TQ5500-MPX (Applied Biosystems).
Tmax: time to reach maximum plasma concentration
iv: intravenous administration
CL total: total clearance

Data set [3] concerns Male ICR mice. Briefly: Mouse defecation experiment. In kind it is in vivo. Conditions: oral, mean±standard error. The procedure: Mouse Defecation Experiment
Male ICR mice (6-7 weeks old) were used after an acclimation period for about 1 week. A test drug (1 mg/kg or 3 mg/kg) was suspended in 0.5% methylcellulose solution and orally administered at a volume of 10 mL/kg, and the number of feces 2 hr later was counted. Only 0.5% methylcellulose was administered to a solvent administration group.

One may read the EC50 as the midpoint of the concentration-response curve. The term clearance denotes a measure of how efficiently the substance is removed, as volume per time. `Cc1c(Cc2ccc(-c3cn(C)nn3)cc2)cc(C(=O)N[C@H]2CCOC[C@@H]2O)c2c1CCO2` [Example 1, 1,5-anhydro-2,3-dideoxy-3-[(4-methyl-5-{[4-(1-methyl-1H-1,2,3-triazol-4-yl)phenyl]methyl}-2,3-dihydro-1-benzofuran-7-carbonyl)amino]-L-threo-pentitol]: the EC50 in data set [1] is 7.9 nM. In data set [2], the clearance is 3.08 mL/min/kg, the MRT amounted to 108 min and the Tmax came out at 60 min. The “number of feces 2 hr later” value in data set [3] (1 mg/kg) amounted to 8.8 ± 2.1.
For `COCCNC(=O)c1ccc(Cc2cc(C(=O)N[C@H]3CCOC[C@@H]3O)c3c(c2C)CCO3)cc1F` [Example 27, 1,5-anhydro-2,3-dideoxy-3-{[5-({3-fluoro-4-[(2-methoxyethyl)carbamoyl]phenyl}methyl)-4-methyl-2,3-dihydro-1-benzofuran-7-carbonyl]amino}-L-threo-pentitol], the concentration giving a half-maximal response (EC50) in data set [1] stood at 14 nM. In addition, in data set [2], the clearance was 19.6 mL/min/kg, the MRT amounted to 42 min and the Tmax was determined as 60 min. Moreover, in data set [3] (1 mg/kg), the “number of feces 2 hr later” value was 7.4 ± 0.9. Further, the “number of feces 2 hr later” value in data set [3] (3 mg/kg) is listed as 6.2 ± 1.0.
Turning to `Cc1c(Cc2ccc(C(=O)NCC(=O)N(C)C)c(F)c2)cc(C(=O)N[C@H]2CCOC[C@@H]2O)c2c1CCO2` [Example 28, 1,5-anhydro-2,3-dideoxy-3-({5-[(4-{[2-(dimethylamino)-2-oxoethyl]carbamoyl}-3-fluorophenyl)methyl]-4-methyl-2,3-dihydro-1-benzofuran-7-carbonyl}amino)-L-threo-pentitol], in data set [1], the EC50 came out at 8.6 nM. Also, in data set [2], the clearance is 18.9 mL/min/kg, the MRT is 36 min and the Tmax is 48 min. In addition, the “number of feces 2 hr later” value in data set [3] (1 mg/kg) turned out to be 7.2 ± 1.9. Moreover, the “number of feces 2 hr later” value in data set [3] (3 mg/kg) is recorded as 6.2 ± 1.3.
As to `Cc1c(Cc2ccc(C(=O)NC[C@H]3CCCO3)c(F)c2)cc(C(=O)N[C@H]2CCOC[C@@H]2O)c2c1CCO2` [Example 29, 1,5-anhydro-2,3-dideoxy-3-[(5-{[3-fluoro-4-({[(2R)-oxolan-2-yl]methyl}carbamoyl)phenyl]methyl}-4-methyl-2,3-dihydro-1-benzofuran-7-carbonyl)amino]-L-threo-pentitol], the EC50 in data set [1] was found to be 11 nM. For the same compound, in data set [2], the clearance is 27.5 mL/min/kg, the MRT turned out to be 36 min and the Tmax came to 30 min.
